Laboratory results from patent publication US20090117140A1, “Human papilloma virus dominant CD4 T cell epitopes and uses thereof” (priority 2007, published 2009).
Entries after “also recorded” stand apart in the source; their conditions may differ.

B1: E7 protein: recombinant HPV 16 E7 protein pulsed to autologous mature dendritic cells (protein)
chain: MHGDTPTLHEYMLDLQPETTDLYCYEQLNDSSEEEDEIDGPAGQAEPDRAHYNIVTFCCKCDSTLRLCVQSTHVDIRTLEDLLMGTLGIVCPICSQKP

Tests used:
[1] = system: E7 56-70 specific T-cell clones from subject 15-04; test: Enzyme-linked immunospot assays defining the core sequence of the CD4 T-cell epitope; settings: for Number of spot-forming units, 15-mer, 11-mer, 10-mer and 9-mer peptides compared: FIG. 3B; for Number of spot-forming units, 15-mer, 11-mer, 10-mer and 9-mer peptides compared / Response (spot-forming units) among the six overlapping 10-mer peptides: peptide concentration 10 μM; for Number of spot-forming units with serially diluted peptides: FIG. 3C, clones #45 and #207; for Response (spot-forming units) among the six overlapping 10-mer peptides: FIG. 3A, three of the four T-cell clones tested
[2] = system: Human Leukocyte Antigen class II molecule; test: Enzyme-linked immunospot assay identifying the restricting Human Leukocyte Antigen molecule; settings: allogeneic B-lymphoblastoid cell line cells sharing class II molecules with subject 15-04, E7 56-70 peptide used in the assay
[3] = system: Human Leukocyte Antigen molecule; settings: from the literature; cited from earlier work
[4] = system: T-cell clones from subject 15-04; test: Enzyme-linked immunospot assay for exogenous presentation (pulsed autologous dendritic cells); settings: FIG. 2B; clones #11, #207, #304; 2.5×10^3 dendritic cells per well

| Molecule | Number of spot-forming units, 15-mer, 11-mer, 10-mer and 9-mer peptides compared [1] | Restriction element of described epitope [3] | further results |
| --- | --- | --- | --- |
| CCKCDSTLRLC (E7 58-68 peptide from immunodominant epitope region of Human Papilloma Virus 16 E7 protein) | Equally large numbers of spot-forming units; also recorded: equally high number of spot-forming units | – | Number of spot-forming units with serially diluted peptides [1]: equivalent numbers of spot forming units; also recorded: equivalent numbers of spot-forming units; Restriction element [2]: Human Leukocyte Antigen-DR17 molecule; Restriction element ([2]; listed as HPV 16 E7 58-68): Human Leukocyte Antigen-DR17 molecule; Restriction element ([2]; listed as novel CD4 T-cell epitope): Human Leukocyte Antigen-DR 17 molecule; Restriction element ([2]; listed as novel HPV 16 E7 CD4 T-cell epitope): Human Leukocyte Antigen-DR17 molecule |
| E6 43-57: previously described HPV 18 E6 CD4 epitope (EVFEFAFKDLFVVYR; UniProt P06463 43-57, looked up, fragment) | – | Human Leukocyte Antigen-DRB1*15 | – |
| E7 61-80: previously described Human Papilloma virus-specific CD4 T-cell epitope of the E7 protein (CDSTLRLCVQSTHVDIRTLE; UniProt P03129 61-80, looked up, fragment) | – | Human Leukocyte Antigen-DR9 | – |
| E7 60-68: 9-mer peptide of HPV 16 E7 contained in the 11-mer E7 58-68 (KCDSTLRLC; UniProt P03129 60-68, looked up, fragment) | negative repeatedly | – | – |
| CCKCDSTLRL (E7 58-67 peptide from immunodominant epitope region of Human Papilloma Virus 16 E7 protein) | Equally large numbers of spot-forming units; also recorded: equally high number of spot-forming units | – | Response (spot-forming units) among the six overlapping 10-mer peptides [1]: strongest response; also recorded: highest number of spot-forming units; Number of spot-forming units with serially diluted peptides [1]: equivalent numbers of spot forming units; also recorded: equivalent numbers of spot-forming units |
| E7 50-62: previously described Human Papilloma virus-specific CD4 T-cell epitope of the E7 protein (AHYNIVTFCCKCD; UniProt P03129 50-62, looked up, fragment) | – | Human Leukocyte Antigen-DR15 | – |
| HPV 16 E7 71-85: previously described HPV 16 E7 epitope, 15 amino acids long (STHVDIRTLEDLLMG; UniProt P03129 71-85, looked up, fragment) | – | Human Leukocyte Antigen-DQB1*02 | – |
| E6 127-141: previously described HPV 16 E6 CD4 epitope (DKKQRFHNIRGRWTG; UniProt P03126 127-141, looked up, fragment) | – | Human Leukocyte Antigen-DRB1*01 | – |
| E7 35-50: previously described Human Papilloma virus-specific CD4 T-cell epitope of the E7 protein (EDEIDGPAGQAEPDRA; UniProt P03129 35-50, looked up, fragment) | – | Human Leukocyte Antigen-DQ2 | – |
| CKCDSTLRLC (E7 59-68 peptide from immunodominant epitope region of Human Papilloma Virus 16 E7 protein) | Equally large numbers of spot-forming units; also recorded: equally high number of spot-forming units | – | Response (spot-forming units) among the six overlapping 10-mer peptides [1]: strongest responses; also recorded: highest number of spot-forming units; Number of spot-forming units with serially diluted peptides [1]: equivalent numbers of spot forming units; also recorded: equivalent numbers of spot-forming units |
| LEDLLMGTL (E7 79-87 control peptide from immunodominant epitope region of Human Papilloma Virus 16 E7 protein) [HPV 16 E7 79-87] | – | Human Leukocyte Antigen-B69 | – |
| EPDRAHYNIVTFCCKCDSTLRLCVQ (E7 46-70 peptide from immunodominant epitope region of Human Papilloma Virus 16 E7 protein) [HPV type 16 E7 46-70] | – | – | Restriction element [2]: Human Leukocyte Antigen major histocompatibility complex class II molecule |
| E7 59-67: 9-mer peptide of HPV 16 E7 contained in the 11-mer E7 58-68 (CKCDSTLRL; UniProt P03129 59-67, looked up, fragment) | negative repeatedly | – | – |
| E7 43-77: previously described Human Papilloma virus-specific CD4 T-cell epitope of the E7 protein (GQAEPDRAHYNIVTFCCKCDSTLRLCVQSTHVDIR; UniProt P03129 43-77, looked up, fragment) | – | Human Leukocyte Antigen-DR3 | – |
| B1 | – | – | Response (interferon-γ secretion) of T-cell clones to pulsed autologous dendritic cells [4]: demonstrated interferon-γ secretion; also recorded: positive responses |
